One series deals with Ephrin type-A receptor 2 (Mus musculus, UniProt Q03145). The series can be described thus: Displacement of biotinylated ephrin-A1-Fc from recombinant mouse c-terminal His6-tagged EphA2 Fc (Ala22 to Ala535 residues) preincubated for 1 hr followed by ephrin-A1-FC addition and measured after 4 hrs by ELISA. For orientation: An ELISA detects its analyte on a solid surface through an enzyme-linked reagent.

Another series concerns PC-3. The series can be described thus: Cytotoxicity against human PC3 cells after 2 hrs by LDH assay. The format is cell-based. Particulars: pc-3, 2 h.
In the next series the test system is Chorioallantoic membrane. The series can be described thus: Antiangiogenic activity in Leghorn chicken fertilized egg chorioallantoic membrane assessed as reduction in unstimulated neovascularization at 10 uM measured after 3 days by CAM assay. The following applies: Gallus gallus, time 3.0 day. It is filed as functional, tissue-based.

Each structure is given as a SMILES string. The source made the active and inactive calls. The calls are words filed in the database; no cut-off is given here.

Ephrin type-A receptor 2, sequence (Q03145 whole entry): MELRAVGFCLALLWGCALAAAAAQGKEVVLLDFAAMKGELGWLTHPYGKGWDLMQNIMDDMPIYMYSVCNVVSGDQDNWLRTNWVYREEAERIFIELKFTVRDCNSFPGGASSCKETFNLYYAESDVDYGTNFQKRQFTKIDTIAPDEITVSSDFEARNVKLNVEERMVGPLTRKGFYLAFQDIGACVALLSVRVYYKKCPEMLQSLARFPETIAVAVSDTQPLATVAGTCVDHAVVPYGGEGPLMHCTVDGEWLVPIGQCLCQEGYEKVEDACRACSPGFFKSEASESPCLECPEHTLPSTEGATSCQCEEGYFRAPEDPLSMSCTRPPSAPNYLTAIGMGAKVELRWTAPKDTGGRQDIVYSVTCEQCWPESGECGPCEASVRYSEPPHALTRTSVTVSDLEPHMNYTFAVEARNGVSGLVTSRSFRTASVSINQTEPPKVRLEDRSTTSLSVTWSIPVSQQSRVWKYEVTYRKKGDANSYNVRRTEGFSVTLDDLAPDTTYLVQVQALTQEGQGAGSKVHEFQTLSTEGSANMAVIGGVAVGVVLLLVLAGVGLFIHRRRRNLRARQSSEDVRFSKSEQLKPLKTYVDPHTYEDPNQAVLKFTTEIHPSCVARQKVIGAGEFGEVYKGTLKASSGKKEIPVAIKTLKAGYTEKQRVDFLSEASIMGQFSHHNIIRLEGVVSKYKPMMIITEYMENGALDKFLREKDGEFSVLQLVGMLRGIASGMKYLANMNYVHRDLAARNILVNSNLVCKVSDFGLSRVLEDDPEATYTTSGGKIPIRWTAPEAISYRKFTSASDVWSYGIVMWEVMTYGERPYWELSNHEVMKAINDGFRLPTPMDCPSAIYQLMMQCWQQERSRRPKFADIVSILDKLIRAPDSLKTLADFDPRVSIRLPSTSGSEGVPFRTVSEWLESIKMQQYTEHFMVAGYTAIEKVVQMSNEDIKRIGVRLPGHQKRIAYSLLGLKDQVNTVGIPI

For `CCNC(=O)O[C@@H]1CC[C@@]2(C)[C@H](CC[C@@H]3[C@@H]2CC[C@]2(C)[C@@H]([C@H](C)CCC(=O)O)CC[C@@H]32)C1`, on Ephrin type-A receptor 2, the IC50 – broadly, the concentration needed to halve the response being measured – is 30 µM.

On to `CCCCCCNC(=O)O[C@@H]1CC[C@@]2(C)[C@H](CC[C@@H]3[C@@H]2CC[C@]2(C)[C@@H]([C@H](C)CCC(=O)N[C@H](CC(=O)O)Cc4c[nH]c5ccccc45)CC[C@@H]32)C1`, for which, on Ephrin type-A receptor 2, the IC50 is 1.5 µM. Moreover, the Activity result with PC-3 was “Non-Toxic”.

As to `C[C@H](CCC(=O)O)[C@H]1CC[C@H]2[C@@H]3CC[C@@H]4C[C@H](OC(=O)NC5CCCCC5)CC[C@]4(C)[C@H]3CC[C@]12C`, the IC50 on Ephrin type-A receptor 2 was found to be 2.7 µM.

For the compound `C[C@H](CCC(=O)O)[C@H]1CC[C@H]2[C@@H]3CC[C@@H]4C[C@H](OC(N)=O)CC[C@]4(C)[C@H]3CC[C@]12C`, the IC50 at Ephrin type-A receptor 2 is 17 µM.

Regarding `CCCCNC(=O)O[C@@H]1CC[C@@]2(C)[C@H](CC[C@@H]3[C@@H]2CC[C@]2(C)[C@@H]([C@H](C)CCC(=O)N[C@H](CC(=O)O)Cc4c[nH]c5ccccc45)CC[C@@H]32)C1`, at Ephrin type-A receptor 2, the half-inhibitory concentration (IC50) came to 1.1 µM. For the same compound, in the series with PC-3, the Activity result is reported as “Non-Toxic”.

With `C[C@H](CCC(=O)O)[C@H]1CC[C@H]2[C@@H]3CC[C@@H]4C[C@@H](OC(N)=O)CC[C@]4(C)[C@H]3CC[C@]12C`, at Ephrin type-A receptor 2, the IC50 came to 9.1 µM.

For the compound `C[C@H](CCC(=O)N[C@H](CC(=O)O)Cc1c[nH]c2ccccc12)[C@H]1CC[C@H]2[C@@H]3CC[C@@H]4C[C@H](OC(=O)Nc5ccccc5)CC[C@]4(C)[C@H]3CC[C@]12C`, the IC50 at Ephrin type-A receptor 2 amounted to 5.5 µM.

Consider `CCCCCCCCNC(=O)O[C@@H]1CC[C@@]2(C)[C@H](CC[C@@H]3[C@@H]2CC[C@]2(C)[C@@H]([C@H](C)CCC(=O)N[C@H](CC(=O)O)Cc4c[nH]c5ccccc45)CC[C@@H]32)C1`, for which the IC50 on Ephrin type-A receptor 2 came to 15 µM.

Regarding `CC(C)NC(=O)O[C@@H]1CC[C@@]2(C)[C@H](CC[C@@H]3[C@@H]2CC[C@]2(C)[C@@H]([C@H](C)CCC(=O)O)CC[C@@H]32)C1`, at Ephrin type-A receptor 2, the IC50 came out at 12 µM.

As for `CCCCNC(=O)O[C@@H]1CC[C@@]2(C)[C@H](CC[C@@H]3[C@@H]2CC[C@]2(C)[C@@H]([C@H](C)CCC(=O)O)CC[C@@H]32)C1`, at Ephrin type-A receptor 2, the IC50 was found to be 3.7 µM.

In the case of `C[C@H](CCC(=O)N[C@H](CC(=O)O)Cc1c[nH]c2ccccc12)[C@H]1CC[C@H]2[C@@H]3CC[C@@H]4C[C@@H](OC(N)=O)CC[C@]4(C)[C@H]3CC[C@]12C`, the IC50 at Ephrin type-A receptor 2 worked out at 5.2 µM.

Regarding `C[C@H](CCC(=O)N[C@H](CC(=O)O)Cc1c[nH]c2ccccc12)[C@H]1CC[C@H]2[C@@H]3CC[C@@H]4C[C@H](OC(=O)NC5CCCCC5)CC[C@]4(C)[C@H]3CC[C@]12C`, the IC50 at Ephrin type-A receptor 2 stood at 1.2 µM. The Activity result with PC-3 is “Non-Toxic”.

Regarding `CCCCCCCCNC(=O)O[C@@H]1CC[C@@]2(C)[C@H](CC[C@@H]3[C@@H]2CC[C@]2(C)[C@@H]([C@H](C)CCC(=O)O)CC[C@@H]32)C1`, the concentration for half-maximal inhibition (IC50) at Ephrin type-A receptor 2 turned out to be 4.5 µM.

Take `C[C@H](CCC(=O)N[C@H](CC(=O)O)Cc1c[nH]c2ccccc12)[C@H]1CC[C@H]2[C@@H]3CC[C@@H]4C[C@H](OC(N)=O)CC[C@]4(C)[C@H]3CC[C@]12C`: on Ephrin type-A receptor 2, the IC50 was 1.2 µM. The Activity result with PC-3 is given as “Non-Toxic”. Moreover, in the series with Chorioallantoic membrane, the outcome was inactive.

Take `C[C@H](CCC(=O)O)[C@H]1CC[C@H]2[C@@H]3CC[C@@H]4C[C@H](OC(=O)Nc5ccccc5)CC[C@]4(C)[C@H]3CC[C@]12C`: the IC50 at Ephrin type-A receptor 2 is 38 µM.

Turning to `CC(C)NC(=O)O[C@@H]1CC[C@@]2(C)[C@H](CC[C@@H]3[C@@H]2CC[C@]2(C)[C@@H]([C@H](C)CCC(=O)N[C@H](CC(=O)O)Cc4c[nH]c5ccccc45)CC[C@@H]32)C1`, the IC50 on Ephrin type-A receptor 2 was 7.1 µM.

On to `CCCCCCNC(=O)O[C@@H]1CC[C@@]2(C)[C@H](CC[C@@H]3[C@@H]2CC[C@]2(C)[C@@H]([C@H](C)CCC(=O)O)CC[C@@H]32)C1`, for which the IC50 at Ephrin type-A receptor 2 was 3.3 µM.

The values are drawn from ChEMBL document CHEMBL4680187, “Optimization of EphA2 antagonists based on a lithocholic acid core led to the identification of UniPR505, a new 3α-carbamoyloxy derivative with antiangiogenetic properties” (Eur J Med Chem, 2020).
